Source: ChEMBL document CHEMBL1201862, “PubChem BioAssay data set” (2004)
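A five-concentration, 48-hour dose response in 96-well plates underlies each endpoint, interpolated linearly between surrounding concentrations. Abbreviation: GI50, concentration required for 50% inhibition of growth.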 Calls of active or inactive are those of the source. Cut-off read from the data, not from the text of the source: active = GI50 up to about 1.1 µM and inactive = higher.

Tests used:
Assay in all cases: DTP human tumour cell line panel, 48 h
786-0 = tested on: 786-0
A549 = tested on: A549
ACHN = tested on: ACHN
CCRF-CEM = tested on: CCRF-CEM
COLO 205 = tested on: COLO 205
DLD-1 = tested on: DLD-1
DMS-273 = tested on: DMS-273
EKVX = tested on: EKVX
HCC 2998 = tested on: HCC 2998
HCT-116 = tested on: HCT-116
HCT-15 = tested on: HCT-15
HL-60 = tested on: HL-60
HOP-18 = tested on: HOP-18
HOP-92 = tested on: HOP-92
HT-29 = tested on: HT-29
IGROV-1 = tested on: IGROV-1
K562 = tested on: K562
KM-20L2 = tested on: KM-20L2
KM12 = tested on: KM12
LOX IMVI = tested on: LOX IMVI
LXFL 529 = tested on: LXFL 529
M14 = tested on: M14
M19-MEL = tested on: M19-MEL
MOLT-4 = tested on: MOLT-4
Malme-3M = tested on: Malme-3M
NCI-H226 = tested on: NCI-H226
NCI-H23 = tested on: NCI-H23
NCI-H460 = tested on: NCI-H460
NCI-H522 = tested on: NCI-H522
OVCAR-3 = tested on: OVCAR-3
OVCAR-4 = tested on: OVCAR-4
OVCAR-5 = tested on: OVCAR-5
OVCAR-8 = tested on: OVCAR-8
RPMI-8226 = tested on: RPMI-8226
RXF 393 = tested on: RXF 393
SF-268 = tested on: SF-268
SF-295 = tested on: SF-295
SF-539 = tested on: SF-539
SK-MEL-28 = tested on: SK-MEL-28
SK-MEL-2 = tested on: SK-MEL-2
SK-MEL-5 = tested on: SK-MEL-5
SK-OV-3 = tested on: SK-OV-3
SN12C = tested on: SN12C
SNB-19 = tested on: SNB-19
SNB-75 = tested on: SNB-75
SNB-78 = tested on: SNB-78
SR = tested on: SR
SW-620 = tested on: SW-620
TK-10 = tested on: TK-10
U-251 = tested on: U-251
UACC-257 = tested on: UACC-257
UACC-62 = tested on: UACC-62
UO-31 = tested on: UO-31
XF498 = tested on: XF498

Measured: GI50

O=C1C(=Cc2ccc([N+](=O)[O-])o2)C(=O)N(CCc2ccccc2)S(=O)(=O)N1CCc1ccccc1
16.3 µM: HCT-15
inactive: 786-0 20.3 µM | A549 > 100 µM | ACHN 17.1 µM | CCRF-CEM 27.7 µM | COLO 205 20.2 µM | DLD-1 17.6 µM | DMS-273 32.7 µM | EKVX > 100 µM | HCC 2998 > 100 µM | HCT-116 16.3 µM | HL-60 12.6 µM | HOP-18 42.2 µM | HOP-92 19.3 µM | HT-29 33.5 µM | IGROV-1 > 100 µM | K562 37 µM | KM-20L2 > 100 µM | KM12 > 100 µM | LOX IMVI 18.7 µM | LXFL 529 16.8 µM | M14 15.4 µM | M19-MEL 17.7 µM | MOLT-4 19.2 µM | Malme-3M 17.1 µM | NCI-H226 24.7 µM | NCI-H23 16.8 µM | NCI-H460 > 100 µM | NCI-H522 19.9 µM | OVCAR-3 17.4 µM | OVCAR-4 16.3 µM | OVCAR-5 > 100 µM | OVCAR-8 28.9 µM | RPMI-8226 27.4 µM | RXF 393 19.5 µM | SF-268 21.8 µM | SF-295 > 100 µM | SF-539 38.1 µM | SK-MEL-28 14.6 µM | SK-MEL-2 16.6 µM | SK-MEL-5 18.7 µM | SK-OV-3 > 100 µM | SN12C 50.4 µM | SNB-19 > 100 µM | SNB-75 37.9 µM | SNB-78 26.1 µM | SR 14.3 µM | SW-620 19.5 µM | TK-10 42.2 µM | U-251 > 100 µM | UACC-257 63 µM | UACC-62 16.9 µM | UO-31 45.3 µM | XF498 20.4 µM
